Measurements taken from ChEMBL document CHEMBL6177982, “Structural Optimization of Pyrazole Compounds as Hsp90 Regulators with Enhanced Antitumor Activity” (J Med Chem, 2025).
Active and inactive are the calls of the source. The rule behind the calls is not given here.

Key:
HCT-116 [1] = assay: Antiproliferative activity against CDC37 knockout human HCT-116 cells assessed as inhibition of cell proliferation incubated for 72 hrs by MTT assay; type: functional, cell-based; conditions: for IC50: HCT-116, 72 h
HCT-116 [2] = assay: Antiproliferative activity against human HCT-116 cells assessed as inhibition of cell proliferation incubated for 72 hrs by MTT assay; type: functional, cell-based; conditions: HCT-116, 72 h
[3] = Selectivity ratio of IC50 for antiproliferative activity against CDC37 knockout human HCT-116 cells to IC50 for antiproliferative activity against human HCT-116 cells; type: functional
[4] = target: Heat shock protein HSP 90-beta/Hsp90 co-chaperone Cdc37 (Homo sapiens) (UniProt P08238+Q16543); assay: Inhibition of His-tagged HSP90(unknown origin)/GST-tagged CDC37 (unknown origin) protein-protein interaction at 100 uM preincubated with HSP90 for 1 hrs followed by CDC37 addition and measured after 1 hrs by HTRF assay relative to control; type: protein-complex assay
[5] = Permeability of compound at pH 7.4 incubated for 4 hrs by PAMPA based UV analysis; type: ADME; conditions: read-out: permeability
HT-29 = assay: Antiproliferative activity against human HT-29 cells assessed as inhibition of cell proliferation incubated for 72 hrs by MTT assay; type: functional, cell-based; conditions: HT-29, 72 h
SK-BR-3 = assay: Antiproliferative activity against human SK-BR-3 cells assessed as inhibition of cell proliferation incubated for 72 hrs by MTT assay; type: functional, cell-based; conditions: SK-BR-3, 72 h
MCF7 = assay: Antiproliferative activity against human MCF7 cells assessed as inhibition of cell proliferation incubated for 72 hrs by MTT assay; type: functional, cell-based; conditions: MCF7, 72 h
HT-1080 = assay: Antiproliferative activity against human HT-1080 cells assessed as inhibition of cell proliferation incubated for 72 hrs by MTT assay; type: functional, cell-based; conditions: HT-1080, 72 h
CT26 = assay: Antiproliferative activity against mouse CT26 cells assessed as inhibition of cell proliferation incubated for 72 hrs by MTT assay; type: functional, cell-based; conditions: CT26, 72 h
[6] = target: Heat shock protein HSP90 (Homo sapiens) (UniProt P07900+P08238); assay: Induction of thermal stabilization of HSP90 in human HCT-116 cells at 10 uM at 53 to 55 degreeC by CETSA based Western blot analysis; type: cell-based

Compound	IC50 (HCT-116 [1])	IC50 (HCT-116 [2])	inhibition [4]	Ratio IC50 [3]	other results
NC(=O)C1CCCCN1C(=O)/C=C/c1cn(-c2ccccc2)nc1-c1ccccc1 (stereo unspecified)	28.8 µM	10 µM	46.4%	2.8	–
O=S(=O)(/C=C/c1cn(-c2ccccc2)nc1-c1cccnc1)c1ccc(Cl)cc1	> 50 µM	1.28 µM	89.2%	>50	–
NC(=O)C1CCCCN1C(=O)/C=C/c1cn(-c2ccccc2)nc1-c1ccco1 (stereo unspecified)	> 50 µM	9.79 µM	55.4%	>5	–
Cc1cccc(S(=O)(=O)/C=C/c2cn(-c3ccccc3)nc2-c2cccnc2)c1	> 50 µM	4.23 µM	83.2%	>10	–
CCCN(C)C(=O)/C=C/c1cn(-c2ccccc2)nc1-c1cccnc1	48.1 µM	9.26 µM	59.8%	5.2	–
CCOC(=O)c1cccc(-c2nn(-c3ccccc3)cc2/C=C/C(=O)N2CCCCC2C(N)=O)c1 (stereo unspecified)	> 50 µM	> 50 µM	< 20%	–	–
CCCN(CCC)C(=O)/C=C/c1cn(-c2ccccc2)nc1-c1cccnc1	46.3 µM	9.04 µM	63.6%	5.1	–
NC(=O)C1CCCCN1C(=O)/C=C/c1cn(-c2ccccc2)nc1-c1cccnc1 (stereo unspecified)	> 100 µM	6.12 µM	74.4%	>10	–
O=C(/C=C/c1cn(-c2ccccc2)nc1-c1cccnc1)N1CCCCC1	> 50 µM	8.11 µM	68.8%	>5	–
NC(=O)C1CCCCN1C(=O)/C=C/c1cn(-c2ccccc2)nc1Cc1ccccc1 (stereo unspecified)	42.2 µM	18.2 µM	38.9%	2.3	–
O=C(/C=C/c1cn(-c2ccccc2)nc1-c1cccnc1)N1CCCCCC1	–	7.17 µM	72.5%	>20	Activity (HCT-116 [1]): inactive
Cc1ccccc1-c1nn(-c2ccccc2)cc1/C=C/C(=O)N1CCCCC1C(N)=O (stereo unspecified)	27.5 µM	10.2 µM	45.4%	2.7	–
NC(=O)C1CCCCN1C(=O)/C=C/c1cn(-c2ccccc2)nc1-c1cccs1 (stereo unspecified)	> 50 µM	8.46 µM	59%	>5	–
CN(C)C(=O)/C=C/c1cn(-c2ccccc2)nc1-c1cccnc1	46 µM	12.4 µM	58.9%	3.7	–
Cc1ccc(S(=O)(=O)/C=C/c2cn(-c3ccccc3)nc2-c2cccnc2)cc1	> 50 µM	4.77 µM	85.8%	>10	–
NC(=O)C1CCCCN1C(=O)/C=C/c1cn(-c2ccccc2)nc1-c1cccnc1Br (stereo unspecified)	> 50 µM	11.8 µM	42.9%	<5	–
O=C(/C=C/c1cn(-c2ccccc2)nc1-c1cccnc1)N1CCCC1	> 50 µM	8.48 µM	65.9%	>5	–
O=S(=O)(CCc1cn(-c2ccccc2)nc1-c1cccnc1)c1ccccc1	> 50 µM	> 50 µM	–	–	Activity [6]: inactive
Cc1ccccc1S(=O)(=O)/C=C/c1cn(-c2ccccc2)nc1-c1cccnc1	> 50 µM	2.55 µM	87.6%	>25	–
NC(=O)C1CCCCN1C(=O)/C=C/c1cn(-c2ccccc2)nc1-c1cncc(Br)c1 (stereo unspecified)	> 100 µM	9.18 µM	72.5%	>10	–
NC(=O)C1CCCCN1C(=O)/C=C/c1cn(-c2ccccc2)nc1-c1cncc(C(F)(F)F)c1 (stereo unspecified)	> 50 µM	> 50 µM	< 20%	–	–
CCN(CC)C(=O)/C=C/c1cn(-c2ccccc2)nc1-c1cccnc1	49.9 µM	10.3 µM	60.2%	4.8	–
COc1ncccc1-c1nn(-c2ccccc2)cc1/C=C/C(=O)N1CCCCC1C(N)=O (stereo unspecified)	> 50 µM	12.5 µM	45.7%	<5	–
NC(=O)C1CCCCN1C(=O)/C=C/c1cn(-c2ccccc2)nc1-c1ccc2ccccc2c1 (stereo unspecified)	> 50 µM	> 50 µM	< 20%	–	–
NC(=O)C1CCCCN1C(=O)/C=C/c1cn(-c2ccccc2)nc1-c1ccccn1 (stereo unspecified)	> 100 µM	7.11 µM	69.5%	>10	–

More lines, main results first:

IC50 (HCT-116 [1])	IC50 (HCT-116 [2])	inhibition [4]	Compound	Ratio IC50 [3]	other results
> 50 µM	9.11 µM	68.3%	NC(=O)C1CCCCN1C(=O)/C=C/c1cn(-c2ccccc2)nc1-c1cccc(N)c1 (stereo unspecified)	>5	–
35 µM	8.12 µM	52.9%	Cc1cccc(-c2nn(-c3ccccc3)cc2/C=C/C(=O)N2CCCCC2C(N)=O)c1 (stereo unspecified)	4.3	–
> 100 µM	8.98 µM	70.9%	COc1cncc(-c2nn(-c3ccccc3)cc2/C=C/C(=O)N2CCCCC2C(N)=O)c1 (stereo unspecified)	>10	–
> 50 µM	> 50 µM	< 20%	NC(=O)C1CCCCN1C(=O)/C=C/c1cn(-c2ccccc2)nc1-c1cccc([N+](=O)[O-])c1 (stereo unspecified)	–	–
> 50 µM	10.3 µM	67.8%	COc1cccc(-c2nn(-c3ccccc3)cc2/C=C/C(=O)N2CCCCC2C(N)=O)c1 (stereo unspecified)	>5	–
28.2 µM	9.17 µM	48.3%	NC(=O)C1CCCCN1C(=O)/C=C/c1cn(-c2ccccc2)nc1-c1cccc(Cl)c1 (stereo unspecified)	3.1	–
25.1 µM	7.83 µM	62.9%	Cc1ccc(-c2nn(-c3ccccc3)cc2/C=C/C(=O)N2CCCCC2C(N)=O)cc1C (stereo unspecified)	3.2	Papp at 4 h [5]: 23 ×10⁻⁶ cm/s; IC50 (HT-29): 10.2 µM; IC50 (SK-BR-3): 13.9 µM; IC50 (MCF7): 12.2 µM; IC50 (HT-1080): 14.8 µM; IC50 (CT26): 9.24 µM
44.5 µM	12.2 µM	50.2%	NC(=O)C1CCCCN1C(=O)/C=C/c1cn(-c2ccccc2)nc1-c1cccc(Br)c1 (stereo unspecified)	3.6	–
> 50 µM	11 µM	43.3%	COc1cc(-c2nn(-c3ccccc3)cc2/C=C/C(=O)N2CCCCC2C(N)=O)ccc1Cl (stereo unspecified)	<5	–
30.8 µM	10.9 µM	44.7%	Cc1ccc(-c2nn(-c3ccccc3)cc2/C=C/C(=O)N2CCCCC2C(N)=O)cc1 (stereo unspecified)	2.8	–
> 50 µM	> 50 µM	< 20%	N#Cc1cccc(-c2nn(-c3ccccc3)cc2/C=C/C(=O)N2CCCCC2C(N)=O)c1 (stereo unspecified)	–	–
44.7 µM	10.1 µM	49.2%	COc1cc(-c2nn(-c3ccccc3)cc2/C=C/C(=O)N2CCCCC2C(N)=O)ccc1Br (stereo unspecified)	4.4	–
> 100 µM	8.11 µM	70.4%	NC(=O)C1CCCCN1C(=O)/C=C/c1cn(-c2ccccc2)nc1-c1ccncc1 (stereo unspecified)	>10	–
> 50 µM	12.6 µM	45.7%	Cc1cc(-c2nn(-c3ccccc3)cc2/C=C/C(=O)N2CCCCC2C(N)=O)ccc1F (stereo unspecified)	<5	–
> 50 µM	> 50 µM	< 20%	NC(=O)C1CCCCN1C(=O)/C=C/c1cn(-c2ccccc2)nc1-c1cccc(C(=O)O)c1 (stereo unspecified)	–	–
32.3 µM	11.8 µM	45.4%	NC(=O)C1CCCCN1C(=O)/C=C/c1cn(-c2ccccc2)nc1-c1ccc(Cl)cc1 (stereo unspecified)	2.7	–
42.2 µM	14.2 µM	45.6%	NC(=O)C1CCCCN1C(=O)/C=C/c1cn(-c2ccccc2)nc1-c1cccc(F)c1 (stereo unspecified)	3	–
42.7 µM	10.6 µM	46.9%	Cc1cc(-c2nn(-c3ccccc3)cc2/C=C/C(=O)N2CCCCC2C(N)=O)ccc1Cl (stereo unspecified)	4	–
